Source: patent US9315475B2 (MERCK SHARP & DOHME CORP., priority 2011, dated 2016)

test system: HIV-1 (H9IIIB strain); experiment: Antiviral acute infection assay in cell culture (Spread); type: cell-based; conditions: Human immunodeficiency virus 1, T-lymphoid, HIV-1 H9IIIB infection of MT-4 human T-lymphoid cells in 10% FBS; mean of at least two independent experiments
Source text: Antiviral Assays in Cell Culture (“Spread”)
Acute Infection Assay (“Spread”) data were generated using HIV-1 (H9IIIB strain) infection of MT-4 human T-lymphoid cells in 10% FBS, and according to the methods disclosed by J. P. Vacca et al, “L-735,524: An orally bioavailable human immunodeficiency virus type 1 protease inhibitor,” Proc. Natl. Acad. Sci. USA, Vol. 91, pp. 4096-4100 (April 1994).

SMILES	EC50 [nM]
CCc1nc(CNC(=O)OC[C@@H]2CO[C@H](CCc3c(F)cncc3NC(=O)CC(c3ccc(F)cc3)c3ccc(F)cc3)CN2)no1 [Example 174, {(3S,6R)-6-[2-(3-{[3,3-bis(4-fluoro-phenyl)propanoyl]amino}-5-fluoropyridin-4-yl)ethyl]morpholin-3-yl}methyl [(5-ethyl-1,2,4-oxadiazol-3-yl)methyl]carbamate]	120
O=C(CC(c1ccc(F)cc1)c1ccc(F)cc1)Nc1cncc(F)c1CC[C@@H]1CN[C@H](COC(=O)NCc2ccc(F)cc2)CO1 [Example 176, {(3S,6R)-6-[2-(3-{[3,3-bis(4-fluoro-phenyl)propanoyl]amino}-5-fluoropyridin-4-yl)ethyl]morpholin-3-yl}methyl (4-fluorobenzyl)carbamate]	73
N#Cc1ncccc1[C@@H](CC(=O)Nc1cccc(F)c1CC[C@@H]1CN[C@H](COC(=O)NCC(F)(F)F)CO1)c1ccc(F)cc1 [Example 178, {(3S,6R)-6-[2-(2-{[(3S)-3-(2-cyanopyridin-3-yl)-3-(4-fluorophenyl)propanoyl]amino}-6-fluoro-phenyl)ethyl]morpholin-3-yl}methyl (2,2,2-trifluoroethyl)carbamate]	85
COc1ccc([C@H](CC(=O)Nc2cncc(F)c2CC[C@@H]2CN[C@H](COC(=O)NCC(F)(F)F)CO2)c2ccccc2)cc1Cl [Example 179, {(3S,6R)-6-[2-(3-{[(3R)-3-(3-chloro-4-methoxyphenyl)-3-phenylpropanoyl]amino}-5-fluoropyridin-4-yl)ethyl]morpholin-3-yl}methyl (2,2,2-trifluoroethyl)carbamate]	240
O=C(C[C@@H](c1ccc(F)cc1)c1ccccc1C(F)(F)F)Nc1cncc(F)c1CC[C@@H]1CN[C@H](COC(=O)NCC(F)(F)F)CO1 [Example 180, [(3S,6R)-6-{2-[3-fluoro-5-({(3S)-3-(4-fluorophenyl)-3-[2-(trifluoro-methyl)phenyl]propanoyl}amino)pyridin-4-yl]ethyl}morpholin-3-yl]methyl (2,2,2-trifluoroethyl)carbamate]	310
O=C(C[C@@H](c1ccc(F)cc1)c1ccsc1)Nc1cccc(F)c1CC[C@@H]1CN[C@H](COC(=O)NCC(F)(F)F)CO1 [Example 183, {(3S,6R)-6-[2-(2-fluoro-6-{[(3S)-3-(4-fluorophenyl)-3-thiophen-3-ylpropanoyl]amino}phenyl)ethyl]morpholin-3-yl}methyl (2,2,2-trifluoroethyl)carbamate]	690
NC(=O)[C@H]1CCCCC1NC(=O)OC[C@@H]1CO[C@H](CCc2c(F)cncc2NC(=O)CC(c2ccc(F)cc2)c2ccc(F)cc2)CN1 (stereo partly drawn) [Example 187, {(3S,6R)-6-[2-(3-{[3,3-bis(4-fluoro-phenyl)propanoyl]amino}-5-fluoropyridin-4-yl)ethyl]morpholin-3-yl}methyl [(2S)-2-carbamoylcyclohexyl] carbamate]	210
N[C@H](C(=O)Nc1cccc(F)c1CC[C@@H]1CN[C@H](COC(=O)NCC(F)(F)F)CO1)[C@@H](c1ccc(F)cc1)c1ccc(OC(F)(F)F)cc1 [Example 219, (βR)-β-(4-fluorophenyl)-N-(3-fluoro-2-{2-[(2R,5S)-5-({[(2,2,2-trifluoroethyl)carbamoyl]oxy}methyl)morpholin-2-yl]ethyl}phenyl)-O-(trifluoromethyl)-L-tyrosinamide]	140
N[C@H](C(=O)Nc1cccc(F)c1CC[C@@H]1CN[C@H](COC(=O)NC2CCOCC2)CO1)C(c1ccc(F)cc1)c1ccc(F)cc1 [Example 223, 4-fluoro-β-(4-fluorophenyl)-N-(3-fluoro-2-{2-[(2R,5S)-5-{[(tetrahydro-2H-pyran-4-ylcarbamoyl)oxy]methyl}morpholin-2-yl]ethyl}phenyl)-L-phenylalaninamide]	1400
N[C@H](C(=O)Nc1cncc(F)c1CC[C@@H]1CN[C@H](COC(=O)NCC(F)(F)F)CO1)[C@H](c1ccc(F)cc1)c1ccc(-c2cccnc2)cc1 [Example 224, (βS)-β-(4-fluorophenyl)-N-(5-fluoro-4-{2-[(2R,5S)-5-({[(2,2,2-trifluoro-ethyl)carbamoyl]oxy}methyl)morpholin-2-yl]ethyl}pyridin-3-yl)-4-pyridin-3-yl-L-phenylalaninamide]	260

Stronger by EC50, values ahead:

EC50 [nM]	SMILES
68	CC(NC(=O)OC[C@@H]1CO[C@H](CCc2c(F)cncc2NC(=O)CC(c2ccc(F)cc2)c2ccc(F)cc2)CN1)C1CCCO1 (stereo partly drawn) [Example 171, {(3S,6R)-6-[2-(3-{[3,3-bis(4-fluoro-phenyl)propanoyl]amino}-5-fluoropyridin-4-yl)ethyl]morpholin-3-yl}methyl [1-(tetrahydrofuran-2-yl)ethyl]carbamate]
68	O=C(CC(c1ccc(F)cc1)c1ccc(F)cc1)Nc1cncc(F)c1CC[C@@H]1CN[C@H](COC(=O)NC2c3ccccc3C[C@H]2O)CO1 (stereo partly drawn) [Example 185, {(3S,6R)-6-[2-(3-{[3,3-bis(4-fluoro-phenyl)propanoyl]amino}-5-fluoropyridin-4-yl)ethyl]morpholin-3-yl}methyl [(2R)-2-hydroxy-2,3-dihydro-1H-inden-1-yl]carbamate]
66	CC(C)C(NC(=O)OC[C@@H]1CO[C@H](CCc2c(F)cncc2NC(=O)CC(c2ccc(F)cc2)c2ccc(F)cc2)CN1)C(C)C [Example 186, {(3S,6R)-6-[2-(3-{[3,3-bis(4-fluoro-phenyl)propanoyl]amino}-5-fluoropyridin-4-yl)ethyl]morpholin-3-yl}methyl [2-methyl-1-(1-methylethyl)propyl] carbamate]
60	Cc1cc(C)n(CCNC(=O)OC[C@@H]2CO[C@H](CCc3c(F)cncc3NC(=O)CC(c3ccc(F)cc3)c3ccc(F)cc3)CN2)n1 [Example 172, {(3S,6R)-6-[2-(3-{[3,3-bis(4-fluoro-phenyl)propanoyl]amino}-5-fluoropyridin-4-yl)ethyl]morpholin-3-yl}methyl [2-(3,5-dimethyl-1H-pyrazol-1-yl)ethyl]carbamate]
53	N[C@H](C(=O)Nc1cccc(F)c1CC[C@@H]1CN[C@H](COC(=O)NCCOc2ccccc2)CO1)C(c1ccc(F)cc1)c1ccc(F)cc1 [Example 222, 4-fluoro-N-(3-fluoro-2-{2-[(2R,5S)-5-({[(2-phenoxyethyl)carbamoyl]oxy}methyl)morpholin-2-yl]ethyl}phenyl)-β-(4-fluorophenyl)-L-phenylalaninamide]
50	COCCOc1ccc([C@@H](CC(=O)Nc2cncc(F)c2CC[C@@H]2CN[C@H](COC(=O)NCC(F)(F)F)CO2)c2ccc(F)cc2)cc1 [Example 181, [(3S,6R)-6-{2-[3-fluoro-5-({(3R)-3-(4-fluorophenyl)-3-[4-(2-methoxy-ethoxy)phenyl]propanoyl}amino)pyridin-4-yl]ethyl}morpholin-3-yl]methyl (2,2,2-trifluoroethyl)carbamate]
50	O=C(CC(c1ccc(F)cc1)c1ccc(F)cc1)Nc1cncc(F)c1CC[C@@H]1CN[C@H](COC(=O)NCc2ccno2)CO1 [Example 188, {(3S,6R)-6-[2-(3-{[3,3-bis(4-fluoro-phenyl)propanoyl]amino}-5-fluoropyridin-4-yl)ethyl]morpholin-3-yl}methyl (isoxazol-5-ylmethyl)carbamate]
41	CNC(=O)OC[C@@H]1CO[C@H](CCc2c(F)cncc2NC(=O)CC(c2ccc(F)cc2)c2ccc(F)cc2)CN1 [Example 177, {(3S,6R)-6-[2-(3-{[3,3-bis(4-fluoro-phenyl)propanoyl]amino}-5-fluoropyridin-4-yl)ethyl]morpholin-3-yl}methyl methylcarbamate]
39	O=C(CC(c1ccc(F)cc1)c1ccc(F)cc1)Nc1cncc(F)c1CC[C@@H]1CN[C@H](COC(=O)NC(CO)C2CC2)CO1 (stereo partly drawn) [Example 175, {(3S,6R)-6-[2-(3-{[3,3-bis(4-fluoro-phenyl)propanoyl]amino}-5-fluoropyridin-4-yl)ethyl]morpholin-3-yl}methyl (1-cyclopropyl-2-hydroxyethyl)carbamate]
37	O=C(CC(c1ccc(F)cc1)c1ccc(F)cc1)Nc1cncc(F)c1CC[C@@H]1CN[C@H](COC(=O)NC2CCOC2)CO1 (stereo partly drawn) [Example 173, {(3S,6R)-6-[2-(3-{[3,3-bis(4-fluoro-phenyl)propanoyl]amino}-5-fluoropyridin-4-yl)ethyl]morpholin-3-yl}methyl tetrahydrofuran-3-ylcarbamate]
25	COC(=O)N[C@H](C(=O)Nc1cncc(F)c1CC[C@@H]1CN[C@H](COC(=O)NCC(F)(F)F)CO1)[C@@H](c1ccc(F)cc1)c1cccc(Cl)c1 [Example 301, (βS)-3-chloro-β-(4-fluorophenyl)-N-(5-fluoro-4-{2-[(2R, 5S)-5-({[(2,2,2-trifluoroethyl)carbamoyl]oxy}methyl)morpholin-2-yl]ethyl}pyridin-3-yl)-Nα-(methoxycarbonyl)-L-phenylalaninamide]
17	O=C(C[C@H](c1ccc(F)cc1)c1ccc(Cl)c(F)c1)Nc1cncc(F)c1CC[C@@H]1CN[C@H](COC(=O)NCC(F)(F)F)CO1 [Example 182, {(3S,6R)-6-[2-(3-{[(3R)-3-(4-chloro-3-fluorophenyl)-3-(4-fluoro-phenyl)propanoyl]amino}-5-fluoropyridin-4-yl)ethyl]morpholin-3-yl}methyl (2,2,2-trifluoroethyl)carbamate]
15	O=C(C[C@@H](c1ccc(F)cc1)c1cncc(C(F)(F)F)c1)Nc1cncc(F)c1CC[C@@H]1CN[C@H](COC(=O)NCC(F)(F)F)CO1 [Example 184, [(3S,6R)-6-{2-[3-fluoro-5-({(3S)-3-(4-fluorophenyl)-3-[5-(trifluoromethyl)pyridin-3-yl]propanoyl}amino)pyridin-4-yl]ethyl}morpholin-3-yl]methyl (2,2,2-trifluoroethyl)carbamate]
